Laboratory results: patent publication US8895579B2, “Heterotricyclic AMPA receptor antagonists for treatment of epilepsy, pain, and other neurological disorders and diseases” (Northwestern University, priority 2010, dated 2014)
“Also recorded” adds a separate entry of the source.

Tests used:
[1] = tested on: AMPA receptor-mediated EPSCs in primary hippocampal neurons; test: AMPA receptor EPSC charge transfer during spontaneous synaptic bursts, whole-cell voltage clamp, cultured hippocampal neurons; type: cell-based; details: 30 μM
Experimental: (§1) Experiments involving primary hippocampal neurons were carried out as described previously (Vivithanaporn et al., 2007). Dissociated neurons were cultured from E18 prenatal hippocampi and were used for analysis from between 17 and 28 days in vitro. The extracellular solution was the same as used for recombinant receptor analysis, while the internal solution for voltage clamp recordings contained (in mM) 95 CsF, 25 CsCl, 10 Cs-HEPES, 10 EGTA, 2 NaCl, 2 Mg-ATP, 10 QX-314, 5 TEA. and 5 4-AP (pH 7.3) and the internal solution for current clamp recordings contained (in mM) 120 KMeSO4, 5 KCl, 5 NaCl, 1 MgCl2, 11 Na-HEPES, 10 phosphocreatine, 4 Na-ATP, and 0.3 Na-GTP (pH 7.0). Borosilicate patch electrodes were pulled and fire polished to 3-5 MΩ resistance. Both whole cell current clamp and voltage clamp recordings were performed using an Axopatch 200B amplifier (MDS, Sunnyvale, Calif.) and filtered at 20 kHz. Gigaohm seals were established in voltage clamp mode and, after membrane rupture, the recordings were carried out either in voltage clamp (clamped at Vm=−70 mV) with a […] series resistance, which was compensated to ˜60%, or in current clamp mode ([…]) with the bridge balance was corrected and pipette resistance neutralized. In vitro status epilepticus (SE) was induced as described previously (Deshpande et al., 2007; Pal et al., 1999) and action potentials were recorded in current clamp mode. Briefly for in vitro SE, magnesium-containing external solution was exchanged for external solution without magnesium and supplemented with 2 μM glycine. This solution exchange produced a period of rapid depolarization and increased AP firing, followed by a period of channel inactivation and reduced AP firing. After channel inactivation, neurons characteristically would hyperpolarize to hold at a membrane voltage (Vm) which was depolarized relative to control Vm, with an increase in AP firing frequency. […] External solutions were bath-applied at a flow rate of 1.5-2 ml/minute. After recording a basal control period, IKM compounds were applied for five minutes (10 minutes for in vitro SE experiments) and changes in excitatory post-synaptic current (EPSC) charge transfer or action potential (AP) frequency were analyzed during the last two minutes of IKM application.
We first measured the actions of the IKM compounds on the charge transfer during spontaneously occurring, polysynaptic bursts of AMPA receptor excitatory post-synaptic currents (EPSCs) in cultured hippocampal neurons (recorded in the presence of bicuculline methiodide and picrotoxin to inhibit GABAA receptors and D-APV to inhibit NMDA receptors). […] IKM-159 had the greatest inhibitory effect at a fixed concentration of 30 μM, producing a reduction in charge transfer of 65±5% (n=6, p<0.01). […] Despite the polar chemical nature of the compounds, recoveries to basal EPSC charge transfers were minimal.

[2] = tested on: AMPA receptor EPSCs, CA1 pyramidal neurons; test: AMPA receptor EPSCs at Schaffer collateral-CA1 synapses, acute hippocampal slices; type: cell-based, mouse; details: 20 μM
Experimental: (§2) For recordings from acute hippocampal slices, brains from P15-21 C57Bl/6 mice were sliced transversely (350 μm thickness) in a sucrose slicing solution containing (in mM) 85 NACl, 2.5 KCl, 1.25 NaH2PO4, 25 NaHCO3, 25 glucose, 75 sucrose, 0.5 CaCl2, 4 MgCl2, 0.5 Na ascorbate, 10 μM DL-APV and 100 μM kynurenic acid (pH 7.3). After slicing, the solution was exchanged with an incubation solution containing (in mM) 125 NaCl, 2.4 KCl, 1.2 NaH2PO4, 25 NaHCO3, 25 glucose: 1 CaCl2, 2 MgCl2, 0.5 Na ascorbate, 10 μM DL-APV and 100 μM kynurenic acid (pH 7.3) that was bubbled continuously with CO2-balanced O2 (carbogen). […] Recordings in voltage clamp mode used the CsF/CsCl internal solution and carbogenated external recording solution containing (in mM) 120 NaCl, 2.4 KCl, 2 MgCl2, 1 CaCl2, 25 NaHCO3, 1.2 NaH2PO4, 25 glucose, 10 μM bicuculline methiodide, 50 μM PTX and 50 μM D-APV (pH 7.3). […] NMDA EPSCs were validated by addition of D-APV (50 μM) at the end of each recording. Hippocampal CA1 or CA3 pyramidal cells were voltage clamped at −70 mV and stimulated with a monopolar electrode either the stratum radiatum or stratum lucidum, respectively. IKM compounds were applied for 10 minutes and changes in the peak amplitudes of excitatory post-synaptic currents (EPSCs) and paired-pulse ratios were analyzed during the last two minutes of drug application. EPSC charge transfer, AP frequency, paired-pulse ratio and EPSC peak amplitude were analyzed with Mini-Analysis v6.03 (Synaptosoft, Decatur, Ga.) and Clampfit v10.0 (MDS, Sunnyvale, Calif.) software.

[3] = target: T1, kainate receptor EPSCs, CA3 pyramidal neurons (Mus musculus, UniProt P39087+Q61626+Q8BMF5); test: Kainate receptor EPSCs at mossy fiber-CA3 synapses, acute hippocampal slices; type: cell-based; details: 20 μM
T1 construct: whole-cell voltage clamp recording from mouse acute brain slices; from tissue; host or cells: acute hippocampal slices, P15-21 C57Bl/6 mice, CA3 pyramidal neurons
Experimental: as §2, with “Hippocampal CA1 or CA3 pyramidal cells were voltage clamped at −70 mV and stimulated with a monopolar electrode either the stratum radiatum or stratum lucidum, respectively.” left out

[4] = tested on: primary hippocampal neurons; test: In vitro model of status epilepticus (Mg2+ removal, 2 μM glycine), action potential firing in hippocampal neurons; type: cell-based
Experimental: as §1
Several AMPA receptor selective antagonists reduce neuronal hyperactivity in both acute brain slice preparations and in in vitro models of epilepsy (Grasso et al., 1999; Szabados et al., 2001). […] We therefore tested the efficacy of IKM-159 in reducing the hyperactive neuronal phenotype in dissociated hippocampal neurons using an in vitro model of status epilepticus (SE) (Deshpande et al., 2007; Pal et al., 1999). […]

mice = details: Ikoma et al., 2008; Oikawa et al., 2009 and unpublished observations; cited from earlier work

T1 sequence (P39087 32-908): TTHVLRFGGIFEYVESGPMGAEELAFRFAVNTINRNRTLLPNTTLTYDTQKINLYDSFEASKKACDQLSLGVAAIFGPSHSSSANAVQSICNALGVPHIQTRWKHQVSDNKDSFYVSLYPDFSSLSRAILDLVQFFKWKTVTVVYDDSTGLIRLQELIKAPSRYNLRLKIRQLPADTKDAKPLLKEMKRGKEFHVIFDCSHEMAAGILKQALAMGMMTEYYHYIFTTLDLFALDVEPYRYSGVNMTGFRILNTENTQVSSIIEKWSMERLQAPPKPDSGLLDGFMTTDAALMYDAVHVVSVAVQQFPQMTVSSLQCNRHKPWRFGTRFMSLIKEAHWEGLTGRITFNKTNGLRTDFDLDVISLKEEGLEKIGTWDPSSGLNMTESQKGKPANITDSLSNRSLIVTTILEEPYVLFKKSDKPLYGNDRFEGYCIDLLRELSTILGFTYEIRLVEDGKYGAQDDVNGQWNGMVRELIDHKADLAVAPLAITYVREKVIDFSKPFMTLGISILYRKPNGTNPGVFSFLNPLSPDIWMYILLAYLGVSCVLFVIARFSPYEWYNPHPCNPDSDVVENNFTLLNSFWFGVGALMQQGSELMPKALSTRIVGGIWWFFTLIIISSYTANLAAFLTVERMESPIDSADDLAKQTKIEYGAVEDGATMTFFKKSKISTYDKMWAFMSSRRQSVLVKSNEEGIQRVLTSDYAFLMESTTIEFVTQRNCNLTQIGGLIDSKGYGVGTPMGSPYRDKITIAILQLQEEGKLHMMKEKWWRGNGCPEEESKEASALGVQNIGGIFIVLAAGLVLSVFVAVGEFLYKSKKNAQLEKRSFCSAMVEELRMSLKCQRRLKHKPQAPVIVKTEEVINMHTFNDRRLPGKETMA
T1 sequence (Q8BMF5 21-956): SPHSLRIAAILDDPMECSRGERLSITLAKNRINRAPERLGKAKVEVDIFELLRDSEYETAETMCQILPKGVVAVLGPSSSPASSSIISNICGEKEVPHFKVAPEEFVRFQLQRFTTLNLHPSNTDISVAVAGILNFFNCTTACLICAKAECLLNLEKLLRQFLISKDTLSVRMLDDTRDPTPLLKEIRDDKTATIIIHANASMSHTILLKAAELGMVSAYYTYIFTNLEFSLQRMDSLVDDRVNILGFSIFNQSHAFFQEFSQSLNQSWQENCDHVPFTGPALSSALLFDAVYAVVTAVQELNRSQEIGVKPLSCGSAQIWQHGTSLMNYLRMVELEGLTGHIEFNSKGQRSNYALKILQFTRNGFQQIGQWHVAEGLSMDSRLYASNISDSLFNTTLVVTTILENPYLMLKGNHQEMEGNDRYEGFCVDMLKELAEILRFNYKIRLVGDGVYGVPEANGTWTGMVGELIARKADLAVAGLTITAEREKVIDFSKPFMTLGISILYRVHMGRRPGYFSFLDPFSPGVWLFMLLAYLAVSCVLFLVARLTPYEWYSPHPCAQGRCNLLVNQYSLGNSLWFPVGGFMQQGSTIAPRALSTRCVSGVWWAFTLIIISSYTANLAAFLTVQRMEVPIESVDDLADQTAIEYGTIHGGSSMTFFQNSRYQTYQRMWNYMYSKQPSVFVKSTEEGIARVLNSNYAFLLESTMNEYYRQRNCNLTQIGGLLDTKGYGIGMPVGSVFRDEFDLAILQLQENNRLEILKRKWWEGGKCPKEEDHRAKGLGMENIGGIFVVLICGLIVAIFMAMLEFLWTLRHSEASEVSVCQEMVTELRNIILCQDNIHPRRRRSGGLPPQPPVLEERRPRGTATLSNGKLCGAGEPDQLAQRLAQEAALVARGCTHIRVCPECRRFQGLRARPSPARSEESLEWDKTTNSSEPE
T1 sequence (Q61626 15-979): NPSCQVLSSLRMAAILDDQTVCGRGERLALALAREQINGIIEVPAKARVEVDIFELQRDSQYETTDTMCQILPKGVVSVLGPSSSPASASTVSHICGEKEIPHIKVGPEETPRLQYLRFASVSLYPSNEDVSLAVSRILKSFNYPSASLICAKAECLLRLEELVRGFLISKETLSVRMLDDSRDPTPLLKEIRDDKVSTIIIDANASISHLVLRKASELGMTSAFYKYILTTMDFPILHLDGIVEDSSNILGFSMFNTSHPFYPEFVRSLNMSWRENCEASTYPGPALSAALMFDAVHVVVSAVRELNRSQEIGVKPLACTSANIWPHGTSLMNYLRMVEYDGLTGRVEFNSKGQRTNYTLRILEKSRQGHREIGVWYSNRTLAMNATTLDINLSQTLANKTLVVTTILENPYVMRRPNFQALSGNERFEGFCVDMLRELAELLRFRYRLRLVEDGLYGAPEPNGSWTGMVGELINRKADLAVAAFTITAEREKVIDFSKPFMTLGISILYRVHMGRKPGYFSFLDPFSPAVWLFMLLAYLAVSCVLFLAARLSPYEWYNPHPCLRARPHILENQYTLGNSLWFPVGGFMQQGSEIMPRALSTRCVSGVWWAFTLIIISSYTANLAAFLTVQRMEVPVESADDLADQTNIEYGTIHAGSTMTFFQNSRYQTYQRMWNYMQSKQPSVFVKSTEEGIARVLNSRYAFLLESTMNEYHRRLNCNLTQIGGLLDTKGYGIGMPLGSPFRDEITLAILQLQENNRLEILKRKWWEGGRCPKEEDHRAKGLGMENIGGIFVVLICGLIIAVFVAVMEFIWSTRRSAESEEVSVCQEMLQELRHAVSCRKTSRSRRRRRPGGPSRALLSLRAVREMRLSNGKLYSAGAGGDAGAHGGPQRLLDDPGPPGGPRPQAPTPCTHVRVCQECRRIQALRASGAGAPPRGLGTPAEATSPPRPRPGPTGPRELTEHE

## O=C(O)C[C@@]12O[C@H]3C=CCN[C@H]3C1CN[C@H]2C(=O)O (some centres unmarked) [IKM-159]
[1]
  reduction from control charge transfer: 65±5%
[1]; voltage clamped at −70 mV
  charge transfer during bursts of AMPA receptor-mediated synaptic events as a percent of the charge transfer during the control period: 35±5%
[2]
  AMPA EPSC peak amplitude as percent of control peak amplitude: 66±5%
  reduction of mean amplitude of AMPA receptor EPSCs: 34±5%
  time synaptic amplitudes remained depressed after application: > 10 min
[2]; control 560±20 pA
  mean AMPA receptor EPSC amplitude in presence of compound: 370±40 pA
[3]
  effect on kainate receptor EPSC peak amplitude: did not alter the mean amplitude; also recorded: did not alter the typical run-down in amplitude
[4]; 3 μM, SE condition 5.7±1.2 Hz, n.s.
  AP firing frequency in SE condition with compound: 4.3±1.7 Hz
[4]; 20 μM, 10 minutes after removal
  AP firing frequency upon wash out of compound: 1.0±0.3 Hz
[4]; 20 μM, SE condition 2.3±0.4 Hz
  AP firing frequency in SE condition with compound: 0.9±0.3 Hz
mice
  behavioral phenotype in mice: hypoactive phenotypes similar to cataleptic states; also recorded: marked hypoactivity and immobility
